Laboratory results from patent US20230416330A1, “Optimized GIP Peptide Analogues” (Antag Therapeutics ApS, priority 2019, published 2023).
Read-outs that look alike come from different tables or passages of the source. Starred links: 1 amine or outer side, 2 acyl side, 3 side chain; linkers in the order of their positions; H or OH if unused. Non-standard residues stand in square brackets, D forms with d. Residues, ends and D or L forms follow the SMILES beside them. Groups on a side chain read outwards from the residue. *: point of attachment. C18 diacid = O=C(O)CCCCCCCCCCCCCCCCC(=O)*; C16 diacid = O=C(O)CCCCCCCCCCCCCCC(=O)*; γGlu = O=C(O)[C@H](CCC(=O)[*:2])N[*:1]; Nle = CCCC[C@H](N)C(=O)O; AEEA = NCCOCCOCC(=O)O; Aib = CC(C)(N)C(=O)O

What was measured:
human GIP receptor = molecular target: T1, human GIP receptor (Homo sapiens, UniProt P48546); test: cAMP assay Alternative 1 (CisBio assay), GIPR antagonism; type: cell-based; conditions: for cAMP antagonism % inhib: % inhibition of Emax
T1 construct: host or cells: HEK-293 cells, transient transfection (Lipofectamine 2000), cDNA in pCMV-Script vector
T1 sequence (P48546 22-466): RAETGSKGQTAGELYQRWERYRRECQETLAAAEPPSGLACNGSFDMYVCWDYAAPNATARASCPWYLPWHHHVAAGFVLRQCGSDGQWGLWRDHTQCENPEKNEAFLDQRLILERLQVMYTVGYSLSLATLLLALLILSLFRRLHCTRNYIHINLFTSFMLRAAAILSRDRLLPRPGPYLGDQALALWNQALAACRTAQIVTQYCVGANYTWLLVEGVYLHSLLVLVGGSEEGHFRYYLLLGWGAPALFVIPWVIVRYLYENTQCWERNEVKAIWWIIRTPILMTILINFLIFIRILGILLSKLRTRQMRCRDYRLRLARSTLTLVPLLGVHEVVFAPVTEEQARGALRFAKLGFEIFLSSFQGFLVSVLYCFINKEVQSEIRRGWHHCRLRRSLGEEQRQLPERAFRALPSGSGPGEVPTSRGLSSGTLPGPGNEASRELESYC
Outline: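 HEK293 cells transiently transfected with hGIPR, compounds diluted in HBSS/HEPES/pluronic/casein with 500 uM IBMX; decrease in intracellular cAMP read by HTRF (665/620 nm) and converted via cAMP standard curve. pIC50 from four-parameter fit; agonism tested separately after 30 min at 37° C.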

[1] = Physical stability: fibril formation in Thioflavin T (ThT) assay with agitation; type: physicochemical; conditions: 25° C., agitation
Outline: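 Peptides at 1, 5, 7.5 or 15 mg/ml in 50 mM sodium phosphate pH 7.4 or in water adjusted to pH 7.4 with NaOH, filtered 0.22 μm, with ThT added. Wells held a 3 mm silica bead under 300 rpm orbital agitation at 25° C. Emission at 486 nm tracked continuously; lag time = 10% of transition above baseline.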

[2] = Solubility by visual inspection of peptide solutions; type: physicochemical
Outline: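 Peptides dissolved at 1, 5, 7.5 or 15 mg/ml in 50 mM sodium phosphate pH 7.4 or water adjusted to pH 7.4 with NaOH, with gentle mixing. Immediate solubility judged visually as a clear, colorless solution.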

| Compound | IC50 (human GIP receptor) [nM] | cAMP antagonism % inhib (human GIP receptor; Table 2B) [%] | Avr lag time (h) ([1]; 1 mg/ml, TFA, Phosphate (7.4)) | Avr lag time (h) ([1]; 5 mg/ml, Na, MilliQ (8)) | Avr lag time (h) ([1]; 7.5 mg/ml, Na, MilliQ (8)) | Avr lag time (h) ([1]; 15 mg/ml, Na, MilliQ (8)) | Visual appearance ([2]; 1 mg/ml, TFA, Phosphate (7.4)) | Visual appearance ([2]; 7.5 mg/ml, Na, MilliQ (8)) | Visual appearance ([2]; 15 mg/ml, Na, MilliQ (8)) | Visual appearance ([2]; 5 mg/ml, Na, MilliQ (8)) | cAMP antagonism pIC50 (human GIP receptor; Table 2A, HEK-293 cells transiently expressing hGIPR, agonist GIP1-42 at EC50) | Avr lag time ([1]; 1 mg/ml, TFA, Phosphate (7.4)) [h] | Avr lag time ([1]; 5 mg/ml, TFA, MilliQ) [h] | Visual appearance ([2]; 1 mg/ml, CI, MilliQ (7.9)) | IC50 (human GIP receptor; Table 2B, HEK-293 cells transiently expressing hGIPR, agonist GIP1-42 at EC50, read-out: cAMP antagonism) [nM] |
| --- | --- | --- | --- | --- | --- | --- | --- | --- | --- | --- | --- | --- | --- | --- | --- |
| CC[C@H](C)[C@H](NC(=O)[C@H](CCCCN)NC(=O)[C@H](CC(=O)O)NC(=O)[C@H](CCSC)NC(=O)C(C)(C)NC(=O)[C@@H](NC(=O)[C@H](CO)NC(=O)[C@H](Cc1ccc(O)cc1)NC(=O)[C@H](CC(=O)O)NC(=O)[C@H](CO)NC(=O)[C@@H](NC(=O)[C@H](Cc1ccccc1)NC(=O)[C@@H](NC(=O)CNC(=O)[C@@H](N)CCC(=O)O)[C@@H](C)O)[C@@H](C)CC)[C@@H](C)CC)C(=O)N[C@@H](CCCCNC(=O)CCCCCCCCCCCCCCC(=O)O)C(=O)N[C@@H](CCC(N)=O)C(=O)N[C@@H](CCC(N)=O)C(=O)N[C@@H](CC(=O)O)C(=O)N[C@@H](Cc1ccccc1)C(=O)N[C@H](C(=O)N[C@@H](CCC(=O)O)C(=O)N[C@@H](Cc1c[nH]c2ccccc12)C(=O)N[C@@H](CC(C)C)C(=O)N[C@@H](CC(C)C)C(=O)N[C@@H](C)C(=O)N[C@@H](CCC(N)=O)C(=O)N[C@@H](CCCCN)C(=O)N1CCC[C@H]1C(=O)N[C@@H](CO)C(=O)N[C@@H](CO)C(=O)NCC(=O)N[C@@H](C)C(=O)N1CCC[C@H]1C(=O)N1CCC[C@H]1C(=O)N1CCC[C@H]1C(=O)N[C@@H](CO)C(=O)O)C(C)C [AT665] (H-EGTFISDYSI[Aib]MDKIK(C16 diacid)QQDFVEWLLAQKPSSGAPPPS-OH; N-terminus assumed) | 0.15 | 88 | fnd (Fnd = fibrils not detected within experiment time (96 hours) with agitation.) | fnd (Fnd = fibrils not detected within experiment time (96 hours) with agitation.) | fnd (Fnd = fibrils not detected within experiment time (96 hours) with agitation.) | fnd (Fnd = fibrils not detected within experiment time (96 hours) with agitation.) | Clear | Clear | Clear |  |  |  |  |  |  |
| CCCC[C@H](NC(=O)C(C)(C)NC(=O)[C@@H](NC(=O)[C@H](CO)NC(=O)[C@H](Cc1ccc(O)cc1)NC(=O)[C@H](CCC(=O)O)NC(=O)[C@H](CO)NC(=O)[C@@H](NC(=O)[C@H](Cc1ccccc1)NC(=O)[C@@H](NC(=O)CNC(=O)[C@@H](N)CCC(=O)O)[C@@H](C)O)[C@@H](C)CC)[C@@H](C)CC)C(=O)N[C@@H](CCC(=O)O)C(=O)N[C@@H](CCCCN)C(=O)N[C@H](C(=O)N[C@@H](CCCCNC(=O)COCCOCCNC(=O)COCCOCCNC(=O)CC[C@H](NC(=O)CCCCCCCCCCCCCCCCC(=O)O)C(=O)O)C(=O)N[C@@H](CCC(N)=O)C(=O)N[C@@H](CCC(N)=O)C(=O)N[C@@H](CCC(=O)O)C(=O)N[C@@H](Cc1ccccc1)C(=O)N[C@H](C(=O)N[C@@H](CCC(=O)O)C(=O)N[C@@H](Cc1c[nH]c2ccccc12)C(=O)N[C@@H](CC(C)C)C(=O)N[C@@H](CC(C)C)C(=O)N[C@@H](C)C(=O)N[C@@H](CCC(N)=O)C(=O)N[C@@H](CCCCN)C(=O)N1CCC[C@H]1C(=O)N[C@@H](CO)C(=O)N[C@@H](CO)C(=O)NCC(=O)N[C@@H](C)C(=O)N1CCC[C@H]1C(=O)N1CCC[C@H]1C(=O)N1CCC[C@H]1C(=O)N[C@@H](CO)C(=O)O)C(C)C)[C@@H](C)CC [AT696] (H-EGTFISEYSI[Aib][Nle]EKIK([AEEA-AEEA-γGlu-C18 diacid])QQEFVEWLLAQKPSSGAPPPS-OH; N-terminus assumed) |  | 97 | fnd (Fnd = fibrils not detected within experiment time (96 hours) with agitation.) | fnd (Fnd = fibrils not detected within experiment time (96 hours) with agitation.) | fnd (Fnd = fibrils not detected within experiment time (96 hours) with agitation.) | fnd (Fnd = fibrils not detected within experiment time (96 hours) with agitation.) | Clear | Clear | Clear | Clear |  |  |  |  |  |
| CC[C@H](C)[C@H](NC(=O)[C@H](CO)NC(=O)[C@H](Cc1ccc(O)cc1)NC(=O)[C@H](CC(=O)O)NC(=O)[C@H](CO)NC(=O)[C@@H](NC(=O)[C@H](Cc1ccccc1)NC(=O)[C@@H](NC(=O)CNC(=O)[C@@H](N)CCC(=O)O)[C@@H](C)O)[C@@H](C)CC)C(=O)N[C@@H](C)C(=O)N[C@@H](CCSC)C(=O)N[C@@H](CC(=O)O)C(=O)N[C@@H](CCCCN)C(=O)N[C@H](C(=O)N[C@@H](CCCCNC(=O)CCCCCCCCCCCCCCC(=O)O)C(=O)N[C@@H](CCC(N)=O)C(=O)N[C@@H](CCC(N)=O)C(=O)N[C@@H](CC(=O)O)C(=O)N[C@@H](Cc1ccccc1)C(=O)N[C@H](C(=O)N[C@@H](CC(N)=O)C(=O)N[C@@H](Cc1c[nH]c2ccccc12)C(=O)N[C@@H](CC(C)C)C(=O)N[C@@H](CC(C)C)C(=O)N[C@@H](C)C(=O)N[C@@H](CCC(N)=O)C(=O)N[C@@H](CCCCN)C(N)=O)C(C)C)[C@@H](C)CC [AT158, reference compound] (H-EGTFISDYSIAMDKIK(C16 diacid)QQDFVNWLLAQK-NH2; N-terminus assumed) |  |  |  |  |  |  |  |  |  |  | 7.8 | <18 | <18 | Turbid and Hazy |  |
| CC[C@H](C)[C@H](NC(=O)[C@H](CCCCN)NC(=O)[C@H](CCC(=O)O)NC(=O)[C@H](CC(C)C)NC(=O)C(C)(C)NC(=O)[C@@H](NC(=O)[C@H](CO)NC(=O)[C@H](Cc1ccc(O)cc1)NC(=O)[C@H](CCC(=O)O)NC(=O)[C@H](CO)NC(=O)[C@@H](NC(=O)[C@H](Cc1ccccc1)NC(=O)[C@@H](NC(=O)CNC(=O)[C@@H](N)CCC(=O)O)[C@@H](C)O)[C@@H](C)CC)[C@@H](C)CC)C(=O)N[C@@H](CCCCNC(=O)COCCOCCNC(=O)COCCOCCNC(=O)CC[C@H](NC(=O)CCCCCCCCCCCCCCCCC(=O)O)C(=O)O)C(=O)N[C@@H](CCC(N)=O)C(=O)N[C@@H](CCC(N)=O)C(=O)N[C@@H](CCC(=O)O)C(=O)N[C@@H](Cc1ccccc1)C(=O)N[C@H](C(=O)N[C@@H](CCC(=O)O)C(=O)N[C@@H](Cc1c[nH]c2ccccc12)C(=O)N[C@@H](CC(C)C)C(=O)N[C@@H](CC(C)C)C(=O)N[C@@H](C)C(=O)N[C@@H](CCC(N)=O)C(=O)N[C@@H](CCCCN)C(=O)N1CCC[C@H]1C(=O)N[C@@H](CO)C(=O)N[C@@H](CO)C(=O)NCC(=O)N[C@@H](C)C(=O)N1CCC[C@H]1C(=O)N1CCC[C@H]1C(=O)N1CCC[C@H]1C(=O)N[C@@H](CO)C(=O)O)C(C)C [AT695] (H-EGTFISEYSI[Aib]LEKIK([AEEA-AEEA-γGlu-C18 diacid])QQEFVEWLLAQKPSSGAPPPS-OH; N-terminus assumed) |  | 98 | fnd (Fnd = fibrils not detected within experiment time (96 hours) with agitation.) | fnd (Fnd = fibrils not detected within experiment time (96 hours) with agitation.) |  |  | Clear |  |  | Clear |  |  |  |  | 0.794 |
